Data published in patent US20140051679A1, “KINASE INHIBITORS AND METHOD OF TREATING CANCER WITH SAME” (UNIVERISTY HEALTH NETWORKS, priority 2011, published 2014).

Key:
[1] = tested on: Colon tumor initiating cells (TICs), 12 colon; assay: Colon tumor-initiating cell growth inhibition (Alamar Blue); type: cell-based; conditions: 216 h, 9 days, read-out: GI50 range 12 colon
Aurora B = molecular target: T1, Aurora B (Homo sapiens, UniProt Q96GD4); assay: Aurora B inhibition assay (Z-Lyte); type: biochemical; conditions: 28 nM Aurora B, 128 μM ATP; read-out: IC50 Ranges Aurora B
T1 construct: purchased Invitrogen PV3970
Procedure: Aurora B inhibition was determined using the Z-Lyte assay kit from Invitrogen. The assay was performed using the recommended manufacturer's instructions with 128 μM ATP and 28 nM Aurora B (Invitrogen cat #PV3970). The % inhibition values were determined according to the manufacturer's directions and IC50 values were obtained using a non-linear 4 point logistic curve fit (XLfit4, IDBS)

human PLK4 = molecular target: T2, human PLK4 (Homo sapiens, UniProt O00444); assay: PLK4 inhibition assay (indirect ELISA); type: biochemical; conditions: GST-PLK4 4 nM, 15 μM ATP; read-out: IC50 Ranges PLK4
T2 construct: amino terminal GST fusion of residues 1-391 of human PLK4; made in house; host or cells: E. coli
T2 sequence (O00444 1-391): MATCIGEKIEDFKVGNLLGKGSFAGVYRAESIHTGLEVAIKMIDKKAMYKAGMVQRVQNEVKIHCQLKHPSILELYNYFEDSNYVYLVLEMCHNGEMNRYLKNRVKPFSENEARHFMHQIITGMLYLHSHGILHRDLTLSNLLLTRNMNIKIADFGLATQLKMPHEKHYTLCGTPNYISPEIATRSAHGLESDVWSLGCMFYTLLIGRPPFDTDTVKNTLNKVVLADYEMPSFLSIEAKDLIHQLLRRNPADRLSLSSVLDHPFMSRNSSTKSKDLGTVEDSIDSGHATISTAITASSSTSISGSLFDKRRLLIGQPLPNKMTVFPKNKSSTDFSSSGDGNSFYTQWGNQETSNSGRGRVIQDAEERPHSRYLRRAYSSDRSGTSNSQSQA
Outline: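 Dephosphorylated GST-tagged human PLK4 (residues 1-391, E. coli), 4 nM, preincubated 15 min with compound, then reacted 30 min with 15 μM ATP on MBP-coated plates (50 mM HEPES pH 7.5, 10 mM MgCl2, 0.01% Brij 35). Phospho-MBP detected by antibody ELISA at 450 nm. Tested at 10 μM or 10-point titrations; IC50 from 4-parameter logistic fit.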

[2] = tested on: HCT116 colon cancer cells; assay: Cell growth inhibition, Sulforhodamine B assay, HCT116; type: cell-based; conditions: Homo sapiens, HCT-116, 120 h, 5 days culture, SRB assay, read-out: Cell Line GI50 Range HCT116
human TTK = molecular target: T3, human TTK (Homo sapiens, UniProt P33981); assay: TTK inhibition assay (indirect ELISA); type: biochemical; conditions: GST-TTK 0.68 nM, 16 μM ATP; read-out: IC50 Ranges TTK
T3 construct: amino terminal GST fusion of full length human TTK; purchased Invitrogen
T3 sequence (P33981 1-857): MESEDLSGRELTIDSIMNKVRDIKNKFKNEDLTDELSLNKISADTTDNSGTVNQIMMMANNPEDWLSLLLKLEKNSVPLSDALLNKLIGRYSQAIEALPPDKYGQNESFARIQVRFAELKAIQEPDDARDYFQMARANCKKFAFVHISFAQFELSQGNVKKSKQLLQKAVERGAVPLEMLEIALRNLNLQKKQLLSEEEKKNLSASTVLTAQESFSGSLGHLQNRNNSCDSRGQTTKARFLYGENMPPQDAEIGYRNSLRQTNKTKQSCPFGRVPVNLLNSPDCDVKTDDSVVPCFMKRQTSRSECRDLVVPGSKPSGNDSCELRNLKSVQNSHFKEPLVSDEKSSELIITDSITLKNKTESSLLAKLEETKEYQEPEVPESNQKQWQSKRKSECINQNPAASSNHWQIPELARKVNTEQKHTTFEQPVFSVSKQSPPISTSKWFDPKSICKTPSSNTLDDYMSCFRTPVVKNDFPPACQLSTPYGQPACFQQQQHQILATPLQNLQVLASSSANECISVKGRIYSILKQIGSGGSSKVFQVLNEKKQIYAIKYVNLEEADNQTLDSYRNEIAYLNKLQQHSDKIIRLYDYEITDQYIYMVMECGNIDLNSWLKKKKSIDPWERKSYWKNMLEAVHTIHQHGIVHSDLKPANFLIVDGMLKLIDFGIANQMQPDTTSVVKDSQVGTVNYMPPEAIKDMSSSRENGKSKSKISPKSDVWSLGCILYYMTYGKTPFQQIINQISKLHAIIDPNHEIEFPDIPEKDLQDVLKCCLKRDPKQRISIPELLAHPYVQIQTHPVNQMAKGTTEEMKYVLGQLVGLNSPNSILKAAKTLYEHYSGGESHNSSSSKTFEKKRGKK

[3] = tested on: MDA-MB-468 breast cancer cells; assay: Cell growth inhibition, Sulforhodamine B assay, MDA-MB-468; type: cell-based; conditions: Homo sapiens, 120 h, 5 days culture, SRB assay, read-out: Cell Line GI50 Range MDA-MB-468
[4] = tested on: PA-1 ovarian cancer cells; assay: Cell growth inhibition, Sulforhodamine B assay, PA-1; type: cell-based; conditions: 120 h, 5 days culture, SRB assay, read-out: Cell Line GI50 Range PA-1
[5] = tested on: OVCAR-3 ovarian cancer cells; assay: Cell growth inhibition, Sulforhodamine B assay, OVCAR-3; type: cell-based; conditions: Homo sapiens, 120 h, 5 days culture, SRB assay, read-out: Cell Line GI50 Range OVCAR-3
[6] = tested on: Ovarian TICs, 2393A ovarian; assay: Ovarian tumor-initiating cell growth inhibition (Alamar Blue); type: cell-based; conditions: 144 h, 6 days, read-out: GI50 range 2393A ovarian
[7] = tested on: MDA-MB-231 breast cancer cells; assay: Cell growth inhibition, Sulforhodamine B assay, MDA-MB-231; type: cell-based; conditions: Homo sapiens, 120 h, 5 days culture, SRB assay, read-out: Cell Line GI50 Range MDA-MB-231
HT29 colon cancer cells = assay: Cell growth inhibition, Sulforhodamine B assay, HT29; type: cell-based; conditions: Homo sapiens, HT-29, 120 h, 5 days culture, SRB assay, read-out: Cell Line GI50 Range HT29

T1 sequence (Q96GD4 whole entry): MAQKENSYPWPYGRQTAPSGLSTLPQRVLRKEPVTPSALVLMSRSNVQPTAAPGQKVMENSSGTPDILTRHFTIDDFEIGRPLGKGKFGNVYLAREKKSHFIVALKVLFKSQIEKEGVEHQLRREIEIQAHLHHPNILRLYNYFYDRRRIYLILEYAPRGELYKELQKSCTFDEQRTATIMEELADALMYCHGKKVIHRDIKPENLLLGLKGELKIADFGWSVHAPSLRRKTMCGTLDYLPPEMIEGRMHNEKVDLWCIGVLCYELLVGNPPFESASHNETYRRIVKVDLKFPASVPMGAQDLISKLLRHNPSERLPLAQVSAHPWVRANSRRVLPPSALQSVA

Compound	GI50 [1] [µM]	IC50 (Aurora B) [µM]	IC50 (human PLK4) [µM]	GI50 [2] [µM]	IC50 (human TTK) [µM]	GI50 [3] [µM]	GI50 [4] [µM]	GI50 [5] [µM]	GI50 [6] [µM]	GI50 [7] [µM]	GI50 (HT29 colon cancer cells) [µM]
CN1CCC(Oc2ccc(-c3n[nH]c4ccc(C(=O)NC(c5ccccc5)C5CC5)cc34)cc2Cl)CC1 (centres unmarked) [Example A188, 3-(3-chloro-4-((1-methylpiperidin-4-yl)oxy)phenyl)-N-(cyclopropyl(phenyl)methyl)-1H-indazole-5-carboxamide]	≤ 5	≤ 5	≤ 5	≤ 5	≤ 5	≤ 5	≤ 5	≤ 5	≤ 5	≤ 5	
CC[C@H](NC(=O)c1ccc2[nH]nc(-c3ccc(OC4CCN(C5COC5)CC4)cc3)c2c1)c1ccccc1Cl [Example A193, (S)—N-(1-(2-chlorophenyl)propyl)-3-(4-((1-(oxetan-3-yl)piperidin-4-yl)oxy)phenyl)-1H-indazole-5-carboxamide]	≤ 5	≤ 5	≤ 5	≤ 5	≤ 5	≤ 5	≤ 5	≤ 5	≤ 5	≤ 5	
CCOC(C(=O)Nc1ccc2[nH]nc(-c3ccc(OC4CCN(C)CC4)cc3)c2c1)c1ccccc1 (centres unmarked) [Example A181, 2-ethoxy-N-(3-(4-((1-methylpiperidin-4-yl)oxy)phenyl)-1H-indazol-5-yl)-2-phenylacetamide]	≤ 5		≤ 5	≤ 5	≤ 5	≤ 5	≤ 5	≤ 5	≤ 5	≤ 5	
CN1CCC(Oc2ccc(-c3n[nH]c4ccc(C(=O)N[C@H](c5sccc5Cl)C5CC5)cc34)cc2)CC1 [Example A167, (S)—N-((3-chlorothiophen-2-yl)(cyclopropyl)methyl)-3-(4-((1-methylpiperidin-4-yl)oxy)phenyl)-1H-indazole-5-carboxamide]	≤ 5	≤ 5	≤ 5	≤ 5	≤ 5	≤ 5	≤ 5		≤ 5		≤ 5
O=C(Nc1ccc2[nH]nc(-c3ccc(OC4CCN(C5COC5)CC4)cc3)c2c1)C(c1ccsc1)N1CCCC1 (centres unmarked) [Example A184, N-(3-(4-((1-(oxetan-3-yl)piperidin-4-yl)oxy)phenyl)-1H-indazol-5-yl)-2-(pyrrolidin-1-yl)-2-(thiophen-3-yl)acetamide]	≤ 5	≤ 5	≤ 5	≤ 5	≤ 5	≤ 5	≤ 5		≤ 5	≤ 5	
CO[C@@H](C(=O)Nc1ccc2[nH]nc(-c3ccc(OC4CCN(C=O)CC4)cc3)c2c1)c1ccccc1 [Example A169, (R)—N-(3-(4-((1-formylpiperidin-4-yl)oxy)phenyl)-1H-indazol-5-yl)-2-methoxy-2-phenylacetamide]	≤ 5		≤ 5	≤ 5	≤ 5	≤ 5	≤ 5	5 to 20	≤ 5		≤ 5

The next lines start with the values.

GI50 [1] [µM]	IC50 (Aurora B) [µM]	IC50 (human PLK4) [µM]	GI50 [2] [µM]	IC50 (human TTK) [µM]	GI50 [3] [µM]	GI50 [4] [µM]	GI50 [5] [µM]	GI50 [6] [µM]	GI50 [7] [µM]	GI50 (HT29 colon cancer cells) [µM]	Compound
≤ 5	≤ 5	≤ 5	≤ 5	≤ 5	≤ 5	≤ 5		≤ 5		≤ 5	O=CN1CCC(Oc2ccc(-c3n[nH]c4ccc(NC(=O)C(c5ccsc5)N5CCCC5)cc34)cc2)CC1 (centres unmarked) [Example A118]
≤ 5	≤ 5	≤ 5	≤ 5	≤ 5	≤ 5	≤ 5		≤ 5		≤ 5	O=C(Nc1ccc2[nH]nc(-c3ccc(N4CCOCC4)cc3)c2c1)C(c1ccsc1)N1CCC1 (centres unmarked) [Example A172, 2-(azetidin-1-yl)-N-(3-(4-morpholinophenyl)-1H-indazol-5-yl)-2-(thiophen-3-yl)acetamide]
≤ 5	≤ 5	≤ 5	≤ 5	≤ 5	≤ 5	≤ 5		≤ 5		≤ 5	O=CN1CCC(Oc2ccc(-c3n[nH]c4ccc(C(=O)NC(c5ccccn5)C5CC5)cc34)cc2)CC1 (centres unmarked) [Example A160, N-(cyclopropyl(pyridin-2-yl)methyl)-3-(4-((1-formylpiperidin-4-yl)oxy)phenyl)-1H-indazole-5-carboxamide]
≤ 5	≤ 5	≤ 5	≤ 5	≤ 5	≤ 5	≤ 5	≤ 5	≤ 5		≤ 5	O=C(NC(c1ccccn1)C1CC1)c1ccc2[nH]nc(-c3ccc(OC4CCN(C5COC5)CC4)cc3)c2c1 (centres unmarked) [Example A171, N-(cyclopropyl(pyridin-2-yl)methyl)-3-(4-((1-(oxetan-3-yl)piperidin-4-yl)oxy)phenyl)-1H-indazole-5-carboxamide]
≤ 5	≤ 5	≤ 5	≤ 5	≤ 5	≤ 5	≤ 5		≤ 5		≤ 5	CC1(O)CCN(c2ccc(-c3n[nH]c4ccc(NC(=O)C(c5ccsc5)N5CCCC5)cc34)cc2)CC1 (centres unmarked) [Example A89, N-(3-(4-(4-hydroxy-4-methylpiperidin-1-yl)phenyl)-1H-indazol-5-yl)-2-(pyrrolidin-1-yl)-2-(thiophen-3-yl)acetamide]
≤ 5	≤ 5	≤ 5	≤ 5	≤ 5	≤ 5	≤ 5		≤ 5			O=C(Nc1ccc2[nH]nc(-c3ccc(OC4CCN(C5COC5)CC4)cc3)c2c1)C(c1ccccc1)C1CC1 (centres unmarked) [Example A185, 2-cyclopropyl-N-(3-(4-((1-(oxetan-3-yl)piperidin-4-yl)oxy)phenyl)-1H-indazol-5-yl)-2-phenylacetamide]
